molecular target: MCH receptor (Homo sapiens, UniProt Q99705); test: Receptor binding assay with Radiolabelled MCH Ligand; design: expressed in transfected cells; host or cells: 293 cells (human kidney, ATCC), transient transfection; crude membranes; details: class by percent of control at 10^-7 M or IC50
Procedure, shortened: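 Membranes from 293 cells transiently transfected with human MCH receptor competed test compounds against a radiolabelled MCH ligand in Tris-HCl pH 7.4 with MgCl2 and EDTA for 60–120 min at room temperature. Filtration and scintillation counting followed, with cold MCH defining nonspecific binding. IC50 came from logit-log plots of %B/B0, and Ki from the Cheng-Prusoff equation.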

Chain of MCH receptor (Q99705 whole entry): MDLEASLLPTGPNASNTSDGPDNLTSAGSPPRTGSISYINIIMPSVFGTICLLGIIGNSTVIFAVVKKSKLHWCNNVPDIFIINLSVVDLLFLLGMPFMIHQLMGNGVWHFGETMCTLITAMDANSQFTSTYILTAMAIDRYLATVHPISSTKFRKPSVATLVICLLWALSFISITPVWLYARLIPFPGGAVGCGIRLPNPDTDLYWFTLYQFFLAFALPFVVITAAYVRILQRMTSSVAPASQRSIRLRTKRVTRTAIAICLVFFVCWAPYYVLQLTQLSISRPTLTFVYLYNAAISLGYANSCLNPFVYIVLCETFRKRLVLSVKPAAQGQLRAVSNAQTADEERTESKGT

| Compound | class |
| --- | --- |
| Cc1nc(N[C@H]2CC[C@@H](NS(=O)(=O)Cc3ccc(Cl)c(Cl)c3)CC2)cc(N(C)C)n1 [compound 473] | 3 (Class 3: The value of percent of control at 10^−7 M was more than 60% or the value of IC50 was more than 200 nM.) |
| Cc1nc(N[C@H]2CC[C@@H](NS(=O)(=O)Cc3ccc(F)cc3)CC2)cc(N(C)C)n1 [compound 474, N-(cis-4-{[6-(dimethylamino)-2-methylpyrimidim-4-yl]amino}cyclohexyl)-1-(4-fluorophenyl)methanesulfonamide] | 3 (Class 3: The value of percent of control at 10^−7 M was more than 60% or the value of IC50 was more than 200 nM.) |
| Cc1nc(N[C@H]2CC[C@@H](NS(=O)(=O)Cc3ccccc3[N+](=O)[O-])CC2)cc(N(C)C)n1 [compound 475] | 3 (Class 3: The value of percent of control at 10^−7 M was more than 60% or the value of IC50 was more than 200 nM.) |
| Cc1nc(N[C@H]2CC[C@@H](NS(=O)(=O)Cc3ccccc3)CC2)cc(N(C)C)n1 [compound 476] | 3 (Class 3: The value of percent of control at 10^−7 M was more than 60% or the value of IC50 was more than 200 nM.) |
| Cc1nc(N[C@H]2CC[C@@H](NS(=O)(=O)CCc3cccc4ccccc34)CC2)cc(N(C)C)n1 [compound 477] | 3 (Class 3: The value of percent of control at 10^−7 M was more than 60% or the value of IC50 was more than 200 nM.) |
| Cc1nc(N[C@H]2CC[C@@H](NS(C)(=O)=O)CC2)cc(N(C)C)n1 [compound 478] | 3 (Class 3: The value of percent of control at 10^−7 M was more than 60% or the value of IC50 was more than 200 nM.) |
| Cc1nc(N[C@H]2CC[C@@H](NS(=O)(=O)C(C)C)CC2)cc(N(C)C)n1 [compound 479] | 3 (Class 3: The value of percent of control at 10^−7 M was more than 60% or the value of IC50 was more than 200 nM.) |
| CCCCCCCCS(=O)(=O)N[C@H]1CC[C@@H](Nc2cc(N(C)C)nc(C)n2)CC1 [compound 480] | 3 (Class 3: The value of percent of control at 10^−7 M was more than 60% or the value of IC50 was more than 200 nM.) |
| COC(=O)c1ccccc1S(=O)(=O)N[C@H]1CC[C@@H](Nc2cc(N(C)C)nc(C)n2)CC1 [compound 481] | 3 (Class 3: The value of percent of control at 10^−7 M was more than 60% or the value of IC50 was more than 200 nM.) |
| C=Cc1ccc(S(=O)(=O)N[C@H]2CC[C@@H](Nc3cc(N(C)C)nc(C)n3)CC2)cc1 [compound 482] | 3 (Class 3: The value of percent of control at 10^−7 M was more than 60% or the value of IC50 was more than 200 nM.) |
| Cc1nc(N[C@H]2CC[C@@H](NS(=O)(=O)c3cccc(C(F)(F)F)c3)CC2)cc(N(C)C)n1 [compound 483] | 3 (Class 3: The value of percent of control at 10^−7 M was more than 60% or the value of IC50 was more than 200 nM.) |
| CC(=O)c1ccc(S(=O)(=O)N[C@H]2CC[C@@H](Nc3cc(N(C)C)nc(C)n3)CC2)cc1 [compound 484] | 3 (Class 3: The value of percent of control at 10^−7 M was more than 60% or the value of IC50 was more than 200 nM.) |
| Cc1nc(N[C@H]2CC[C@@H](NS(=O)(=O)c3ccc(C)c(Cl)c3)CC2)cc(N(C)C)n1 [compound 485] | 3 (Class 3: The value of percent of control at 10^−7 M was more than 60% or the value of IC50 was more than 200 nM.) |
| Cc1cc(C)c(S(=O)(=O)N[C@H]2CC[C@@H](Nc3cc(N(C)C)nc(C)n3)CC2)c(C)c1 [compound 486] | 3 (Class 3: The value of percent of control at 10^−7 M was more than 60% or the value of IC50 was more than 200 nM.) |
| CCCc1ccc(S(=O)(=O)N[C@H]2CC[C@@H](Nc3cc(N(C)C)nc(C)n3)CC2)cc1 [compound 487] | 3 (Class 3: The value of percent of control at 10^−7 M was more than 60% or the value of IC50 was more than 200 nM.) |
| CCC(C)(C)c1ccc(S(=O)(=O)N[C@H]2CC[C@@H](Nc3cc(N(C)C)nc(C)n3)CC2)cc1 [compound 488] | 3 (Class 3: The value of percent of control at 10^−7 M was more than 60% or the value of IC50 was more than 200 nM.) |

From US20090036448A1, “PYRIMIDINE DERIVATIVES AND METHODS OF TREATMENT RELATED TO THE USE THEREOF” (TAISHO PHARMECUTICAL CO., LTD., priority 2004, published 2009)
